According to patent publication US20180066018A1, “CONFORMATIONALLY STABLE ANALOGS OF THE RESPONSE SELECTIVE C5A AGONIST EP67” (Board Of Regents Of The University Of Nebraska, priority 2015, published 2018):
“Also recorded” adds a separate entry of the source. Non-standard residues stand in square brackets, D forms with d. No end group written: not given here. NMeL = CN[C@@H](CC(C)C)C(=O)O; Aib = CC(C)(N)C(=O)O

Tests used:
[1] = test system: human monocytes; test: Differentiation/maturation of human monocytes into macrophages in vitro (light microscopy); type: cell-based
Experimental: To assess the binding of EP67 analogs to APCs and subsequent biological activity on these cells, peptides were assayed for their ability to elicit the activation of monocytes in vitro and to drive the differentiation/maturation of human monocytes into macrophages and subsequently dendritic cells.
Briefly, monocytes were harvested from human peripheral blood mononuclear cells. The human monocytes were incubated at 37 degrees C. for 24 hrs in media the presence of PBS, 100 μg/ml of EP67, 100 μg/ml of EP144, and 100 μg/ml of EP145. The cells were also incubated with for 48 hrs with sEP67 as a control. The cells were then photographed under light microscopy at 20× or 40× magnification. […] Panels A-C & G are at 20× magnification and Panels D-E are at 40× magnification.

[2] = test system: human and mouse macrophages; details: cited from earlier work
[3] = test system: C5aR-bearing macrophages vs. C5aR-bearing neutrophils; test: Bioselectivity: cytokine release from macrophages vs. MPO release from neutrophils; type: cell-based; details: antilog[(−Δmacrophage)−(−Δneutrophil)], relative to C5a set at 1
From the text: 2. Potency. Analog potency will be measured by half maximal effective concentration (EC50); i.e., the concentration of the analog to induce a response halfway between baseline and maximum effect. EC50 values for each analog be determined in two separate assays: cytokine release from macrophages and MPO release from neutrophils.
In macrophages, we will measure the release of the TH1 cytokines IL-6, TNFα, and INFγ in accordance to our previously published methods (Morgan et al. Enhancement of In Vivo and In Vitro Immune Functions by a Conformationally Biased, Response-Selective Agonist of Human C5a: Implications for a Novel Adjuvant in Vaccine Design. Vaccine 28:463-469, 2010; Morgan et al. A novel adjuvant for vaccine development in the aged. Vaccine 28:8275-8279, 2010). These cytokines are consistently released in readily measurable amounts from macrophages (as well as monocytes and dendritic cells) and will be representative of what we have seen with EP67 and consistent with the nature of the supporting data presented above. Briefly, macrophages will be incubated in the presence of various concentrations of analogs (10, 50, 100, 200 μg/ml) in standard cell culture conditions for 6, 12, and 24, hrs. […]
3. […] Analog selectivity for cytokine release from macrophages vs. MPO release from neutrophils will be determined by the following equation: […]

[4] = test system: human and porcine monocytes; details: cited from earlier work
[5] = NMR (ROESY) determination of cis/trans conformer populations of the Met-Xaa peptide bond; type: physicochemical; details: in solution
From the text: NMR spectroscopy is the best method for detection of cis/trans prolyl isomerization in a peptide. AAx-Pro cis/trans isomerization (where AAx is any adjacent amino acid residue) is detectable via two resonance frequencies in the NMR spectra per nuclear spin in the proximity of the isomerizing bond. Rotating-Frame NOE Spectroscopy (ROESY) was used to analyze EP67 (150 msec mixing time) in DMSO-d6. Characteristic NOE patterns readily discriminate the resonances arising from the cis and trans conformers allowing for specific assignments of each. Also, the relative populations of each conformer can be determined by integration of the separate peak volumes. Short ^1H-^1H distances (NOEs) between the alpha proton of AAx and the alpha proton of Pro are diagnostic of the cis AAx-Pro peptide bond. On the other hand, an observed NOE between the alpha proton of AAx and the delta protons of Pro are diagnostic of the trans AAx-Pro peptide bond.
where AA and AA′ are adjacent amino acids.
Analog peptides can be analyzed by NMR spectroscopy to verify structure and ascertain cis/trans conformer ratios of the Pro-substituted analogs. Special attention should be paid to the angles formed about α-carbon […]) and carbonyl carbon (Ψ and ω bonds) in the Met residue to the N-terminus of the substituted Pro residues. […]

[6] = 100 μg/ml, 37 degrees C., 24 hrs

M(MeL)RFPDaYKS (M[NMeL]RFPD[dA]YKS) [sEP67]
differentiation of human monocytes to macrophages (adhesion to substrate and flattening) ([1]; control peptide, 48 hrs): do not exhibit this phenotype

Tyr-Ser-Phe-Lys-Asp-Met-Pro-(MethylLeu)-D-Ala-Arg (YSFKDMP[NMeL][dA]R) [EP67]
differentiation of human monocytes to macrophages (adhesion to substrate and flattening) [1, 6]: monocytes mature into macrophages | release of Th1 cytokines (IL-1β, IL-6, IL-8, IL-12, TNFα, IFNγ) [2]: induces the release of T helper type 1 (Th1) cytokines | release of Th2 cytokines (IL-2, IL-4, IL-5, IL-10) [2]: few T helper type 2 (Th2) cytokines | selectivity factor for macrophage activity over that of neutrophils [3]: 2951 | necrosis and apoptosis of the macrophages/dendritic cells once generated [4]: decreases necrosis and apoptosis | differentiation of monocytes to macrophages and dendritic cells ([4]; human and porcine monocytes): induces the differentiation of human and porcine monocytes to macrophages and dendritic cells

YSFKDM(Aib)LaR (YSFKDM[Aib]L[dA]R-OH) [EP144, EP67 analog with Pro substituted with 2-aminoisobutyric acid and MeL with Leu]
differentiation of human monocytes to macrophages (adhesion to substrate and flattening) [1, 6]: drive the differentiation of human monocytes to macrophages; also recorded: monocytes mature into macrophages | cis:trans conformer ratio [5]: all-trans

YSFKDM(dmP)(MeL)aR (YSFKDMXLAR; 5,5'-dimethylproline, N-methyl-Leu, D-Ala; MOD_RES (7)..(7) Xaa is 5,5′-dimethylproline; MOD_RES (8)..(8) N-methyl Leu; MOD_RES (9)..(9) D-Ala) [EP145, EP67 analog with Pro substituted with 5,5′-dimethylproline]
differentiation of human monocytes to macrophages (adhesion to substrate and flattening) [1, 6]: drive the differentiation of human monocytes to macrophages; also recorded: monocytes mature into macrophages

B1: C5a: short (74 residues in human) glycoprotein generated by enzymatic cleavage of complement C5 (protein, UniProt P01031 678-751, looked up)
C5a anaphylatoxin: TLQKKIEEIAAKYKHSVVKKCCYDGACVNNDETCEQRAARISLGPRCIKAFTECCVVASQLRANISHKDMQLGR
modifications: C5a anaphylatoxin
notes: short (74 residues in human) glycoprotein generated by enzymatic cleavage of complement C5
selectivity factor for macrophage activity over that of neutrophils [3]: 1
